{"source": "patent US12527779B2", "about": "“Prostaglandin E2 (PGE2) EP4 receptor antagonists” (Domain Therapeutics, priority 2019, dated 2026)", "tested_on": "Pan02 tumor cells", "test": "In vivo anti-tumoral activity of Example 166 in a Pan02 tumor model", "design": "species or system C57BL/6 mice", "protocol": "Pan02 tumor cells were maintained in vitro as a monolayer culture in RPM11640 medium supplemented with 10% fetal bovine serum at 37° C. in an atmosphere of 5% CO2 in air. The cells were routinely subcultured twice weekly by trypsin-EDTA treatment. The cells in an exponential growth phase were harvested and counted for tumor inoculation. Female C57BL/6 mice were inoculated subcutaneously in the right rear flank region with Pan02 tumor cells (3×10^6) in 0.1 ml of PBS for tumor development on day 0. Tumor volumes were measured thrice per week in two dimensions using a caliper, and the volume was expressed in mm^3 using the formula: “V=(L×W×W)/2”, where V is tumor volume, L is tumor length (the longest tumor dimension) and W is tumor width (the longest tumor dimension perpendicular to L). When the mean tumor size reached approximately 100 mm^3, mice were randomly allocated into groups (10 mice per group) and treated with or without the compound of Example 166 (3, 10, 30, 100 or 300 mg/kg, po, QD, 5% DMSO/95% (10% w/v solution of HP-β-CD in water) v/v) for at least 3 weeks). Animals were checked daily for morbidity and mortality. During routine monitoring, the animals were checked for any effects on tumor growth and treatments on behavior such as mobility, food and water consumption, body weight gain/loss (body weights were measured thrice per week), eye/hair matting and any other abnormalities. Dosing as well as tumor and body weight measurements were conducted in a Laminar Flow Cabinet. The body weights and tumor volumes were monitored by using StudyDirector™ software (version 3.1.399.19)."}
{"smiles": "C[C@H](NC(=O)C1(N2CC[C@@H](Oc3cccc(C(F)(F)F)c3)C2)CC1)c1ccc(C(=O)O)cc1.Cl", "note": "[Example 166, 4-[(1S)-1-[[1-[(3R)-3-[3-(Trifluoromethyl)phenoxy]pyrrolidin-1-yl]cyclopropane-1-carbonyl]amino]ethyl]benzoic acid, hydrochloride]", "values": [{"measurement": "Tumor Growth Inhibition TGI (%)", "setting": "3 mg/kg po QD, day 0", "value": 0.0, "unit": "%"}, {"measurement": "Tumor Growth Inhibition TGI (%)", "setting": "3 mg/kg po QD, day 4", "value": 8.2, "unit": "%"}, {"measurement": "Tumor Growth Inhibition TGI (%)", "setting": "3 mg/kg po QD, day 7", "value": 2.9, "unit": "%"}, {"measurement": "Tumor Growth Inhibition TGI (%)", "setting": "3 mg/kg po QD, day 9", "value": 2.3, "unit": "%"}, {"measurement": "Tumor Growth Inhibition TGI (%)", "setting": "3 mg/kg po QD, day 11", "value": "−8.0", "unit": "%"}, {"measurement": "Tumor Growth Inhibition TGI (%)", "setting": "3 mg/kg po QD, day 14", "value": "−5.6", "unit": "%"}, {"measurement": "Tumor Growth Inhibition TGI (%)", "setting": "3 mg/kg po QD, day 16", "value": 10.7, "unit": "%"}, {"measurement": "Tumor Growth Inhibition TGI (%)", "setting": "3 mg/kg po QD, day 18", "value": 9.1, "unit": "%"}, {"measurement": "Tumor Growth Inhibition TGI (%)", "setting": "3 mg/kg po QD, day 21", "value": "−1.4", "unit": "%"}, {"measurement": "Tumor Growth Inhibition TGI (%)", "setting": "10 mg/kg po QD, day 0", "value": 0.0, "unit": "%"}, {"measurement": "Tumor Growth Inhibition TGI (%)", "setting": "10 mg/kg po QD, day 4", "value": 14.3, "unit": "%"}, {"measurement": "Tumor Growth Inhibition TGI (%)", "setting": "10 mg/kg po QD, day 7", "value": "−2.3", "unit": "%"}, {"measurement": "Tumor Growth Inhibition TGI (%)", "setting": "10 mg/kg po QD, day 9", "value": 0.8, "unit": "%"}, {"measurement": "Tumor Growth Inhibition TGI (%)", "setting": "10 mg/kg po QD, day 11", "value": 2.4, "unit": "%"}, {"measurement": "Tumor Growth Inhibition TGI (%)", "setting": "10 mg/kg po QD, day 14", "value": 11.1, "unit": "%"}, {"measurement": "Tumor Growth Inhibition TGI (%)", "setting": "10 mg/kg po QD, day 16", "value": 21.1, "unit": "%"}, {"measurement": "Tumor Growth Inhibition TGI (%)", "setting": "10 mg/kg po QD, day 18", "value": 22.4, "unit": "%"}, {"measurement": "Tumor Growth Inhibition TGI (%)", "setting": "10 mg/kg po QD, day 21", "value": 16.2, "unit": "%"}, {"measurement": "Tumor Growth Inhibition TGI (%)", "setting": "30 mg/kg po QD, day 0", "value": 0.0, "unit": "%"}, {"measurement": "Tumor Growth Inhibition TGI (%)", "setting": "30 mg/kg po QD, day 4", "value": 17.5, "unit": "%"}, {"measurement": "Tumor Growth Inhibition TGI (%)", "setting": "30 mg/kg po QD, day 7", "value": 19.0, "unit": "%"}, {"measurement": "Tumor Growth Inhibition TGI (%)", "setting": "30 mg/kg po QD, day 9", "value": 16.3, "unit": "%"}, {"measurement": "Tumor Growth Inhibition TGI (%)", "setting": "30 mg/kg po QD, day 11", "value": "−8.2", "unit": "%"}, {"measurement": "Tumor Growth Inhibition TGI (%)", "setting": "30 mg/kg po QD, day 14", "value": 5.7, "unit": "%"}, {"measurement": "Tumor Growth Inhibition TGI (%)", "setting": "30 mg/kg po QD, day 16", "value": 9.7, "unit": "%"}, {"measurement": "Tumor Growth Inhibition TGI (%)", "setting": "30 mg/kg po QD, day 18", "value": 13.9, "unit": "%"}, {"measurement": "Tumor Growth Inhibition TGI (%)", "setting": "30 mg/kg po QD, day 21", "value": 7.4, "unit": "%"}, {"measurement": "Tumor Growth Inhibition TGI (%)", "setting": "100 mg/kg po QD, day 0", "value": 0.0, "unit": "%"}, {"measurement": "Tumor Growth Inhibition TGI (%)", "setting": "100 mg/kg po QD, day 4", "value": 17.1, "unit": "%"}, {"measurement": "Tumor Growth Inhibition TGI (%)", "setting": "100 mg/kg po QD, day 7", "value": 21.4, "unit": "%"}, {"measurement": "Tumor Growth Inhibition TGI (%)", "setting": "100 mg/kg po QD, day 9", "value": 20.8, "unit": "%"}, {"measurement": "Tumor Growth Inhibition TGI (%)", "setting": "100 mg/kg po QD, day 11", "value": 23.7, "unit": "%"}, {"measurement": "Tumor Growth Inhibition TGI (%)", "setting": "100 mg/kg po QD, day 14", "value": 44.3, "unit": "%"}, {"measurement": "Tumor Growth Inhibition TGI (%)", "setting": "100 mg/kg po QD, day 16", "value": 42.2, "unit": "%"}, {"measurement": "Tumor Growth Inhibition TGI (%)", "setting": "100 mg/kg po QD, day 18, hydrochloride", "value": 48.2, "unit": "%"}, {"measurement": "Tumor Growth Inhibition TGI (%)", "setting": "100 mg/kg po QD, day 21", "value": 42.6, "unit": "%"}, {"measurement": "Tumor Growth Inhibition TGI (%)", "setting": "300 mg/kg po QD, day 0", "value": 0.0, "unit": "%"}, {"measurement": "Tumor Growth Inhibition TGI (%)", "setting": "300 mg/kg po QD, day 4", "value": 14.3, "unit": "%"}, {"measurement": "Tumor Growth Inhibition TGI (%)", "setting": "300 mg/kg po QD, day 7", "value": "−2.5", "unit": "%"}, {"measurement": "Tumor Growth Inhibition TGI (%)", "setting": "300 mg/kg po QD, day 9", "value": "−0.7", "unit": "%"}, {"measurement": "Tumor Growth Inhibition TGI (%)", "setting": "300 mg/kg po QD, day 11", "value": "−5.6", "unit": "%"}, {"measurement": "Tumor Growth Inhibition TGI (%)", "setting": "300 mg/kg po QD, day 14", "value": 11.8, "unit": "%"}, {"measurement": "Tumor Growth Inhibition TGI (%)", "setting": "300 mg/kg po QD, day 16", "value": 24.7, "unit": "%"}, {"measurement": "Tumor Growth Inhibition TGI (%)", "setting": "300 mg/kg po QD, day 18, hydrochloride", "value": 32.9, "unit": "%"}, {"measurement": "Tumor Growth Inhibition TGI (%)", "setting": "300 mg/kg po QD, day 21", "value": 32.8, "unit": "%"}]}
